Read-outs that look alike come from different tables or passages of the source.
Key:
[1] = target: T1, full length N-terminally FLAG-tagged PARP1 (Homo sapiens, UniProt P09874); test: PARP1 biochemical DELFIA assay (auto-PARylation); set-up: recombinant full length human N-terminally FLAG-tagged PARP1
[2] = target: T1, full length N-terminally FLAG-tagged PARP1; test: PARP1 probe displacement HTRF assay; conditions: for Selectivity: PARP1 over PARP2, ratio Kd (PARP2)/Kd (PARP1); for Kd: binned Kd
[3] = target: T2, N-terminally FLAG-tagged PARP2 (amino acids 1-583) (Homo sapiens, UniProt Q9UGN5); test: PARP2 probe displacement HTRF assay; format: binding; conditions: binned Kd
T2 construct: N-terminally FLAG-tagged PARP2 (amino acids 1-583)
Experimental: Data analysis was performed identical as for PARP1.

[4] = binned IC50, PARP1 biochemical DELFIA assay
[5] = read-out: PARP1 HTRF, PARP1 probe displacement HTRF
[6] = binned IC50, biochemical auto-PARylation assay
[7] = read-out: PARP1 HTRF, probe displacement HTRF
[8] = PARP1 HTRF, probe displacement HTRF

T1 sequence (P09874 whole entry): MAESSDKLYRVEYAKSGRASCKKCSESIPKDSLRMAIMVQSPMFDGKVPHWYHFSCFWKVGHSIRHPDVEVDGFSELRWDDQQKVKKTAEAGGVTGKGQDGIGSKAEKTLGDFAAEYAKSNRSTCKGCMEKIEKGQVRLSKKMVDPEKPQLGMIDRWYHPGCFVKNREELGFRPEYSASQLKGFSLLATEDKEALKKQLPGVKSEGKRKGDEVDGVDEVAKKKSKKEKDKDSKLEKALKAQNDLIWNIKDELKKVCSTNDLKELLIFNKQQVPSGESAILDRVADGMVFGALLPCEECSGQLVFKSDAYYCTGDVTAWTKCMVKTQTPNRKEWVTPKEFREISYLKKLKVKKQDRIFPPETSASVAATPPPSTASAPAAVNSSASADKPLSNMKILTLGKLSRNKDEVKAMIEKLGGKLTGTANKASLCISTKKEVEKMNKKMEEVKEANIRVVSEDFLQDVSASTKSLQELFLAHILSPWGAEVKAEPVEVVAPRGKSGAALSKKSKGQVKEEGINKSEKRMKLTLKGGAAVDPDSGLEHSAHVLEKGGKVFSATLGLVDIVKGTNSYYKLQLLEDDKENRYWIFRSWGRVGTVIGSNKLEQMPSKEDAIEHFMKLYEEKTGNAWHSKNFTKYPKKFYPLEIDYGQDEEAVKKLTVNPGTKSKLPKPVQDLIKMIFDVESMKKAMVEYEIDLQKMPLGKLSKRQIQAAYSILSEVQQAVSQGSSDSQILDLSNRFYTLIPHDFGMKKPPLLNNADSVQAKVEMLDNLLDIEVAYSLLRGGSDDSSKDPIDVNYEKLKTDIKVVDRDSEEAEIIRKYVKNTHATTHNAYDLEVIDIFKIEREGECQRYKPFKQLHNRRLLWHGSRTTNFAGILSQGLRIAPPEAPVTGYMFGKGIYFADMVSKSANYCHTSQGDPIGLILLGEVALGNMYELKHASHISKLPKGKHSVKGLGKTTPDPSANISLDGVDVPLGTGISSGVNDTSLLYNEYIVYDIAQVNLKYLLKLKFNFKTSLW
T2 sequence (Q9UGN5 whole entry, the tested form may be a part): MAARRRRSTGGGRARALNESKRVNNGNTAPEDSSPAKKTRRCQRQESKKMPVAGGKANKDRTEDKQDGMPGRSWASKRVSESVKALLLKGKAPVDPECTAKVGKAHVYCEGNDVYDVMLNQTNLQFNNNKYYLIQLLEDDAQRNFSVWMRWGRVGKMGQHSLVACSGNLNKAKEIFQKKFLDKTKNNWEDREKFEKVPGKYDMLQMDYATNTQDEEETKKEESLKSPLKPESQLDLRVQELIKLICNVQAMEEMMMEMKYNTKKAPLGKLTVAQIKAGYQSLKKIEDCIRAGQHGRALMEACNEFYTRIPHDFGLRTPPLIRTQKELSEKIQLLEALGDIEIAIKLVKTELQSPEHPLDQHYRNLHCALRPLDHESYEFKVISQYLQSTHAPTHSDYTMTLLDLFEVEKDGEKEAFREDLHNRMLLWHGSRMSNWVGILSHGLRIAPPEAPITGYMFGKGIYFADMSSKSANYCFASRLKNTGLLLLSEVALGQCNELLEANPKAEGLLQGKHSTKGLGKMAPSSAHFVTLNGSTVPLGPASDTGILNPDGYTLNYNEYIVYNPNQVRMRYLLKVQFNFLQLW

| IC50 [1, 4] [nM] | Kd [2, 5] [nM] | Kd ([3]; PARP2 probe displacement HTRF) [nM] | IC50 [1, 6] [nM] | Kd [2, 7] [nM] | Kd ([3]; probe displacement HTRF) [nM] | Kd [2, 8] [nM] | Compound | Selectivity ([2]; probe displacement HTRF) |
| --- | --- | --- | --- | --- | --- | --- | --- | --- |
| 100 to 1000 | 100 to 1000 | > 10000 | – | – | – | – | CNC(=O)c1ccc(N2CCC(N3CCCC(c4nc5ccncc5c(=O)[nH]4)C3)CC2)cn1 (single isomer, unassigned) [Compound 93a] | + (+ indicates a value of 10 to less than 50) |
| – | – | – | < 10 | < 10 | 10 to 100 | – | CNC(=O)c1ccc(N2CCC(N3CCC(c4[nH]c(=O)c5cc(F)ccc5c4F)C3)CC2)c(F)n1 (racemic) [Compound 403rac] | +++ (+++ indicate a value of at least 100) |
| < 10 | < 10 | 100 to 1000 | – | – | – | – | CNC(=O)c1ccc(N2CCC(N3CCC(c4cc5c(C(F)(F)F)cccc5c(=O)[nH]4)C3)CC2)cn1 (single isomer, unassigned) [Compound 167b] | +++ (+++ indicate a value of at least 100) |
| 10 to 100 | 10 to 100 | 1000 to 10000 | – | – | – | – | CNC(=O)c1ccc(OCCN2CCC(c3nc4ccccc4c(=O)[nH]3)C2)cn1 (single isomer, unassigned) [Compound 62a] | ++ (++ indicates a value of 50 to less than 100) |
| – | – | – | 100 to 1000 | 100 to 1000 | > 10000 | – | CCc1ccc(C2CCN(C3CCN(c4ccc(OC(F)F)nc4)CC3)C2)[nH]c1=O (single isomer, unassigned) [Compound 382a] | + (+ indicates a value of 10 to less than 50) |
| 10 to 100 | 10 to 100 | 1000 to 10000 | – | – | – | – | N#Cc1ccc(N2CCC(N3CCCC(c4nc5ccccc5c(=O)[nH]4)C3)CC2)nc1 (single isomer, unassigned) [Compound 74b] | ++ (++ indicates a value of 50 to less than 100) |
| – | – | – | < 10 | – | 1000 to 10000 | < 10 | N#Cc1ccc(N2CCC(N3CC4(c5nc6ccc(F)cc6c(=O)[nH]5)CC3C4)CC2)c(Cl)c1 [Compound 381] | +++ (+++ indicate a value of at least 100) |
| – | – | – | < 10 | < 10 | 10 to 100 | – | CNC(=O)c1cc(Cl)c(N2CCC(N3CCC(c4cc5ccc(F)cc5c(=O)[nH]4)C3)CC2)cn1 (single isomer, unassigned) [Compound 236b] | + (+ indicates a value of 10 to less than 50) |
| – | – | – | < 10 | < 10 | 10 to 100 | – | CNC(=O)c1ccc(N2CCC(N3CCC(c4cc5ccc(F)cc5c(=O)[nH]4)C3)CC2)cc1F (single isomer, unassigned) [Compound 270b] | + (+ indicates a value of 10 to less than 50) |
| – | – | – | 10 to 100 | < 10 | 100 to 1000 | – | CNC(=O)c1ccc(N2CCC(N3CCC(c4cc5c(c(C(F)(F)F)nn5C)c(=O)[nH]4)C3)CC2)c(F)n1 (single isomer, unassigned) [Compound 407a] | ++ (++ indicates a value of 50 to less than 100) |
| – | – | – | < 10 | < 10 | 1000 to 10000 | – | CNC(=O)c1ccc(N2CCC(N3CCC(c4cc5c(c(=O)[nH]4)CCC(=O)N5C)C3)CC2)cn1 (racemic) [Compound 325rac] | +++ (+++ indicate a value of at least 100) |
| – | – | – | < 10 | < 10 | 1000 to 10000 | – | CNC(=O)c1ccc(N2CCC(N3CC(c4cc5cccc(F)c5c(=O)[nH]4)CC3=O)CC2)cn1 (racemic) [Compound 362rac] | +++ (+++ indicate a value of at least 100) |
| < 10 | < 10 | 10 to 100 | – | – | – | – | CNC(=O)c1ccc(N2CCC(N3CCC(c4cc5cccc(C(F)(F)F)c5c(=O)[nH]4)C3)CC2)cn1 (racemic) [Compound 135rac] | + (+ indicates a value of 10 to less than 50) |
| – | – | – | < 10 | < 10 | < 10 | – | CNC(=O)c1ccc(N2CCC(N3CCC(c4cc5c(c(C(F)(F)F)nn5C)c(=O)[nH]4)C3)CC2)cn1 (racemic) [Compound 244rac] | − (− indicates a value of less than 10) |
| 10 to 100 | 10 to 100 | > 10000 | – | – | – | – | CNC(=O)c1ccc(N2CCC(N3CCCC(F)(c4nc5ccccc5c(=O)[nH]4)C3)CC2)cn1 (single isomer, unassigned) [Compound 71b] | +++ (+++ indicate a value of at least 100) |
| 10 to 100 | 10 to 100 | 1000 to 10000 | – | – | – | – | CNC(=O)c1ccc(N2CCC(N3CCC(c4nc5ccccc5c(=O)[nH]4)C3)CC2)c(C(F)(F)F)n1 (single isomer, unassigned) [Compound 139b] | +++ (+++ indicate a value of at least 100) |
| – | – | – | 100 to 1000 | 100 to 1000 | > 10000 | – | CNC(=O)c1ccc(N2CCC(N3CCC(c4nc5c(c(=O)[nH]4)CCC5)C3)CC2)cn1 (single isomer, unassigned) [Compound 283a] | + (+ indicates a value of 10 to less than 50) |
| – | – | – | 100 to 1000 | 100 to 1000 | > 10000 | – | CNC(=O)c1ccc(N2CCC(N3CCCC(O)(c4nc5ccccc5c(=O)[nH]4)C3)CC2)cn1 (single isomer, unassigned) [Compound 327a] | + (+ indicates a value of 10 to less than 50) |
| – | – | – | < 10 | – | 10 to 100 | < 10 | CNC(=O)c1ccc(N2CCC(N3CC4(c5nc6cccc(C(F)(F)F)c6c(=O)[nH]5)CC3C4)CC2)cn1 [Compound 394] | + (+ indicates a value of 10 to less than 50) |
| – | – | – | < 10 | – | 100 to 1000 | < 10 | O=C(NC1CC1)c1ncc(N2CCC(N3CC4(c5nc6ccc(F)cc6c(=O)[nH]5)CC3C4)CC2)cc1F [Compound 411] | +++ (+++ indicate a value of at least 100) |
| 1000 to 10000 | 1000 to 10000 | > 10000 | – | – | – | – | CNC(=O)c1ccc(N2CCC(N3CCCC(F)(c4nc5ccccc5c(=O)[nH]4)C3)CC2)cn1 (single isomer, unassigned) [Compound 71a] | − (− indicates a value of less than 10) |
| – | – | – | < 10 | < 10 | 100 to 1000 | – | CNC(=O)c1ccc(N2CCC(N3CC4(c5nc6ccccc6c(=O)[nH]5)CCC3C4)CC2)cn1 (single isomer, unassigned) [Compound 245a] | +++ (+++ indicate a value of at least 100) |
| 10 to 100 | 100 to 1000 | 1000 to 10000 | – | – | – | – | N#Cc1ccc(N2CCC(N3CCCC(c4nc5ccccc5c(=O)[nH]4)C3)CC2)cn1 (single isomer, unassigned) [Compound 70a] | + (+ indicates a value of 10 to less than 50) |
| – | – | – | < 10 | < 10 | 100 to 1000 | – | CNC(=O)c1ccc(N2CCC(N3CCC(c4cc5c(c(=O)[nH]4)CCCN5)C3)CC2)cn1 (racemic) [Compound 233rac] | +++ (+++ indicate a value of at least 100) |
| – | – | – | 100 to 1000 | 100 to 1000 | 1000 to 10000 | – | CC(=O)Nc1ccc(N2CCC(N3CCC(c4cc5ccccc5c(=O)[nH]4)C3)CC2)cc1 (single isomer, unassigned) [Compound 289a] | − (− indicates a value of less than 10) |
| – | – | – | < 10 | < 10 | 100 to 1000 | – | Cc1n[nH]c(-c2ccc(N3CCC(N4CCC(c5nc6ccccc6c(=O)[nH]5)C4)CC3)cn2)n1 (racemic) [Compound 275rac] | + (+ indicates a value of 10 to less than 50) |
